From US20120202793A1, “RHO KINASE INHIBITORS” (priority 2009, published 2012)
One block for each molecule: values may come before it.

Key:
ROCK 1 = ROCK 1 (Homo sapiens, UniProt Q13464); test: Inhibition of Rho kinase ROCK 1 (Tables 2.1-2.4); format: biochemical
Experimental: (§1) Inhibitory activity for Rho kinase was determined for examples of compounds of the present invention. Inhibition of Rho kinase can be assayed as described. For each of these compounds their inhibitory activity for both ROCK1 and ROCK2 was determined.
(§2) The IC50 values (in μM) for each of these compounds show a selectivity for inhibiting ROCK2.

ROCK 2 = ROCK 2 (Homo sapiens, UniProt O75116); test: Inhibition of Rho kinase ROCK 2 (Tables 2.1-2.4); format: biochemical
ROCK 2, sequence (O75116 whole entry, species assumed): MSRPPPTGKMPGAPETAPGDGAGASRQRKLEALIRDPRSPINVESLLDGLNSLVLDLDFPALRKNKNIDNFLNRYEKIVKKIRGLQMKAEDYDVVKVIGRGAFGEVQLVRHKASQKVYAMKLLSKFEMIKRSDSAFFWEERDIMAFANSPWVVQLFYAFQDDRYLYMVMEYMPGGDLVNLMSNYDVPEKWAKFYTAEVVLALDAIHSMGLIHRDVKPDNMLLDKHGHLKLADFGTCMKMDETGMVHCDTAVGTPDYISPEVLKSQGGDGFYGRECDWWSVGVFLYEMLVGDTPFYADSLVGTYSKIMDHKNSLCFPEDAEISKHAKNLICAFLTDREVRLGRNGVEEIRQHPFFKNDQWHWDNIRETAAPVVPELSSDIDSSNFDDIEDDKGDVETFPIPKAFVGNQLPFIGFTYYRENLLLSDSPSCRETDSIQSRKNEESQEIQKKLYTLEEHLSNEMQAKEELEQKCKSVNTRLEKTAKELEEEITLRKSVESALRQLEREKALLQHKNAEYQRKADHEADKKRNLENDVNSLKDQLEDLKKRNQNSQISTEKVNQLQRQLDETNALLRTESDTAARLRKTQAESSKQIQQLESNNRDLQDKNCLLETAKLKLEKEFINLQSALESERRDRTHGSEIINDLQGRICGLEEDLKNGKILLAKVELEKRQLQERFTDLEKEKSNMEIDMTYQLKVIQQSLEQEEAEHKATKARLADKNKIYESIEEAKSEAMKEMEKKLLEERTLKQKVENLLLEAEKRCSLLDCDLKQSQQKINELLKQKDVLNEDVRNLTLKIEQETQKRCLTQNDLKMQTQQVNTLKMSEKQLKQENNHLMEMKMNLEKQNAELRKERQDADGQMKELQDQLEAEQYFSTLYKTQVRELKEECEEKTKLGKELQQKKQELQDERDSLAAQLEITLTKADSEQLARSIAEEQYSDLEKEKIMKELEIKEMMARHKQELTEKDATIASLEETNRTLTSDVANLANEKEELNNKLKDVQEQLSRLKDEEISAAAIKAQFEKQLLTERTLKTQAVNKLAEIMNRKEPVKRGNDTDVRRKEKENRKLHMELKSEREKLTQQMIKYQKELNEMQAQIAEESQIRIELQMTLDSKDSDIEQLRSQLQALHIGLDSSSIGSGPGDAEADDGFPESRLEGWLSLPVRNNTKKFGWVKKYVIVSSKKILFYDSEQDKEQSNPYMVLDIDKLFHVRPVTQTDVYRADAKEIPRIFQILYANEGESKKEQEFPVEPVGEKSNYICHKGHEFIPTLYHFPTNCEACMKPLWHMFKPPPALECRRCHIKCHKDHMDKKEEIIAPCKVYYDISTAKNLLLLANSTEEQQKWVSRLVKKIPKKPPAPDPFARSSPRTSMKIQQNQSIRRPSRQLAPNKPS
Experimental: as §1, §2

ROCK2 = test: Inhibition of phosphorylation of S6 Long Peptide by ROCK1 and ROCK2 (33P filter assay), selective inhibition of ROCK2; format: biochemical
Experimental: Filtration was done in 96 well filter plates containing phosphocellulose cation exchange paper (Millipore, Cat#MAPHNOBIO).
The reaction was incubated for 40 minutes at room temperature and stopped with 25 ul 3% phosphoric acid. Reaction was then transferred to a filter plate wet with 75 mM phosphoric acid. The plate was then washed three times with 75 mM phosphoric acid and once with methanol. […] IC50 values were determined using Graphpad Prism.

[1] = Attenuation of weight gain in Leptin deficient (ob−/ob−) mice, low fat or high fat diet; format: in vivo
Experimental: The effect of SLx-2119 on weight gain in Leptin deficient (ob^−/ob^−) mice fed a low fat (normal) or high fat diet was also measured. […] The leptin deficient mice gained considerably more weight than normal 057BL/6 mice fed the low fat diet.
The leptin deficient mice consuming the high fat diet gained weigh at about four times the rate of normal mice on a low fat diet. […] As with the low fat diet, caloric intake was quite a bit higher in the ob^−/ob^− mice, whether or not they received SLx-2119. (FIG. 23).

[2] = Body weight of rats fed a low fat diet; format: in vivo
Description: The effect of SLx-2119 supplementation on body weight of rats fed a low fat diet was also investigated.

[3] = Fasting insulin and glucose levels in ApoE (−/−) and C57BL/6 mice on high fat diet; format: in vivo
Description: (§3) In a different experiment, ApoE (−/−) deficient mice were compared with C57BL/6 mice. All mice were initially fed a control diet for one week, and a high fat diet for the following 11 weeks. At the start of the fourth week, half of the C57BL/6 mice and half of the ApoE (−/−) mice were supplemented with 0.1% SLx-2119 in the diet.
The reductions in fasting insulin levels were accompanied by reductions in fasting blood glucose levels. (FIG. 18, bottom).

[4] = Attenuation of weight gain in ApoE (−/−) and C57BL/6 mice on high fat diet; format: in vivo; settings: 0.1% in the diet from the fourth week, FIG. 15
Description: as §3

[5] = Glucose tolerance in C57BL/6 mice after 54 days on diet; format: in vivo; settings: high fat diet with compound, meal after overnight fast, FIG. 14
Description: Separate groups of C57BL/6 mice were fed as above, and evaluated for glucose tolerance after 54 days. All mice were fed the same meal |what is the meal| after an overnight fast. […] (FIG. 14)

[6] = Attenuation of hyperinsulinemia in Leptin deficient (ob−/ob−) mice; format: in vivo
Description: Leptin deficient (ob^−/ob^−) mice were maintained on a normal (control), or a high fat diet with or without SLx-2119. […] Attenuation of hyperinsulinemia was similarly observed in ob^−/ob^− mice maintained on a low fat diet (FIG. 26).

[7] = Attenuation of weight gain, C57BL/6 mice consuming a high fat diet; format: in vivo
Experimental: The ability of SLx-2119 to limit weight gain was evaluated by administration to C57BL/6, ApoE knockout, and leptin deficient mice as part of a high fat or low fat diet.
Three groups of 10 mice each were initially fed a control diet for a week. Two groups were then switched to a high fat diet in which 42% of the calories were from fat. SLx-2119 was included in the diet of one of the two groups. The third group continued on the control diet. Fasting glucose levels were measured during the first week (all groups consuming the control diet), and again during the third and sixth week.

ROCK 1, sequence (Q13464 whole entry, species assumed): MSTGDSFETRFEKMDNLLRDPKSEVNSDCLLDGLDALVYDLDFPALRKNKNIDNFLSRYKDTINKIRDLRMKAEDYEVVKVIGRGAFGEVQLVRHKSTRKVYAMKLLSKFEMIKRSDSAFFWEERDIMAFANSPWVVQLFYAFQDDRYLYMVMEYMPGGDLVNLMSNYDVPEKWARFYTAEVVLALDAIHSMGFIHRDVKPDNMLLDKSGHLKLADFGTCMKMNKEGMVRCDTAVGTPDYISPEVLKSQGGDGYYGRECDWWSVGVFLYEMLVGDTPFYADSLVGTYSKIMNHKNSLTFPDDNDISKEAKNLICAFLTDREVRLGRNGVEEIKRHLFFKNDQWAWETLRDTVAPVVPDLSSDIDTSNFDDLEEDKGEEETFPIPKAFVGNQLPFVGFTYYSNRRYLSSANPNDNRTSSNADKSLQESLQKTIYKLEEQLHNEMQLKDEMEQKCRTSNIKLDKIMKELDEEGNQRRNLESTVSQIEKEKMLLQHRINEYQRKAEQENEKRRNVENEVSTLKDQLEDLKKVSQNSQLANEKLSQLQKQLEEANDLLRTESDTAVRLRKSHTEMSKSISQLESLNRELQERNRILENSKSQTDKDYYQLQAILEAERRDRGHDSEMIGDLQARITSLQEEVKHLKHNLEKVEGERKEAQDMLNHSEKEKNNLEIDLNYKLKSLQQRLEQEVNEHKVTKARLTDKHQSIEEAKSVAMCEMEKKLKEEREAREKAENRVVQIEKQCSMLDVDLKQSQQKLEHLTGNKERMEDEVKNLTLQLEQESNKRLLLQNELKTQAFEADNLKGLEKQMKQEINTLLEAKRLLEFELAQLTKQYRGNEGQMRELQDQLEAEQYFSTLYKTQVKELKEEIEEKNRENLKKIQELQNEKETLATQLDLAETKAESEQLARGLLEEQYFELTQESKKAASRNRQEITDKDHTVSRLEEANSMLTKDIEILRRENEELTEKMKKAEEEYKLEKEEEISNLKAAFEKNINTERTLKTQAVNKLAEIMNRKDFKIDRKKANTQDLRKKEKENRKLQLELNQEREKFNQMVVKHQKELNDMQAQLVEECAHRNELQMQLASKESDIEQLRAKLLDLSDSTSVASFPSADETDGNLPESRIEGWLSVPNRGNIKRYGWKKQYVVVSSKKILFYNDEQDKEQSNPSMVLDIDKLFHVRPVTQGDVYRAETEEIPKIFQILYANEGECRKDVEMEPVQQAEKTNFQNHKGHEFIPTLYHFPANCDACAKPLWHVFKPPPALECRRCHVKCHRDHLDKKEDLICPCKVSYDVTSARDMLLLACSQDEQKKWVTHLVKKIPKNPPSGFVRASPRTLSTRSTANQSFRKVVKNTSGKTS

- IC50 (ROCK 1): > 10 µM
- IC50 (ROCK 2): 0.15 µM
Compound: COCCNC(=O)COc1cccc(-c2nc(Nc3ccc4[nH]ncc4c3)c3ccccc3n2)c1 [Example 54, 2-(3-(4-(1H-indazol-5-ylamino)quinazolin-2-yl)phenoxy)-N-(2-methoxyethyl)acetamide]

- IC50 (ROCK 1): > 10 µM
- IC50 (ROCK 2): 0.09 µM
Compound: O=C(COc1cccc(-c2nc(Nc3ccc4[nH]ncc4c3)c3ccccc3n2)c1)Nc1cccnc1 [Example 55, 2-(3-(4-(1H-indazol-5-ylamino)quinazolin-2-yl)phenoxy)-N-(pyridin-3-yl)acetamide]

- IC50 (ROCK 1): 2.6 µM
- IC50 (ROCK 2): 0.52 µM
Compound: NC(=O)COc1cccc(-c2nc(Nc3ccc4[nH]ncc4c3)c3ccccc3n2)c1 [Example 84, 2-(3-(4-(1H-indazol-5-ylamino)quinazolin-2-yl)phenoxy)acetamide]

- IC50 (ROCK 1): > 1 µM
- IC50 (ROCK 2): 0.04 µM
Compound: CCCC(=O)Nc1cccc(-c2nc(Nc3ccc4[nH]ncc4c3)c3cc(OCCN(C)C)ccc3n2)c1 [Example 141, N-(3-(4-(1H-indazol-5-ylamino)-6-(2-(dimethylamino)ethoxy)quinazolin-2-yl)phenyl)butyramide]

- IC50 (ROCK 1): > 3 µM
- IC50 (ROCK 2): 0.05 µM
Compound: CCCC(=O)Nc1cccc(-c2nc(Nc3ccc4[nH]ncc4c3)c3cc(OCCCN4CCOCC4)c(OC)cc3n2)c1 [Example 160, N-(3-(4-(1H-indazol-5-ylamino)-7-methoxy-6-(3-morpholinopropoxy)quinazolin-2-yl)phenyl)butyramide]

- IC50 (ROCK 1): > 3 µM
- IC50 (ROCK 2): 0.06 µM
Compound: COc1cc2nc(-c3cccc(NC(=O)CN4CCOCC4)c3)nc(Nc3ccc4[nH]ncc4c3)c2cc1OCCN1CCCC1 [Example 167, N-(3-(4-(1H-Indazol-5-ylamino)-7-methoxy-6-(2-(pyrrolidin-1-yl)ethoxy)quinazolin-2-yl)phenyl)-2-morpholinoacetamide]

- IC50 (ROCK 1): > 3 µM
- IC50 (ROCK 2): 0.09 µM
Compound: CCCC(=O)Nc1cccc(-c2nc(Nc3ccc4[nH]ncc4c3)c3ccc(OCCOC)cc3n2)c1 [Example 263]

- IC50 (ROCK 1): > 10 µM
- IC50 (ROCK 2): 0.57 µM
Compound: CC(=O)Oc1cccc(-c2nc(Nc3ccc4[nH]ncc4c3)c3ccccc3n2)c1 [Example 272]

Compound: C[C@@H](N)[C@H]1CC[C@H](C(=O)Nc2ccncc2)CC1 [Example Y-27632]
- inhibition of ROCK2 compared with ROCK1 (ROCK2): to the same extent

Compound: CC(C)NC(=O)COc1cccc(-c2nc(Nc3ccc4[nH]ncc4c3)c3ccccc3n2)c1 [SLx-2119]
- weight gain ([1]; normal C57BL/6 mice, low fat diet, FIG. 19): no distinguishable effect
- weight gain ([1]; ob−/ob− mice, high fat diet, FIG. 22): reduced by half
- weight gain ([1]; ob−/ob− mice, low fat diet, versus ob−/ob− mice without compound, FIG. 19): gained only half as much weight
- reduction of body weight gain ([2]; FIG. 27): about 6%
- caloric intake ([2]; FIG. 28): little or no change
- fasting blood glucose levels ([3]; C57BL/6 and ApoE (−/−) mice, FIG. 18 bottom): reductions
- fasting insulin levels ([3]; normal C57BL/6 mice, FIG. 18 top): reduction
- weight gain less than in mice that did not receive the supplement ([4]; ApoE (−/−) mice): 50%
- weight gain less than in mice that did not receive the supplement ([4]; C57BL/6 mice): 33%
- glucose levels following feeding [5]: increased relative to mice maintained on the control diet, but not as high as in mice that did not receive SLx-2119
- recovery of glucose levels [5]: quickly recovered to a normal level
- fasting blood glucose levels ([6]; high fat diet, FIG. 25): reduced to normal levels
- fasting insulin levels ([6]; high fat diet, FIG. 25): significantly reduced
- hyperinsulinemia ([6]; low fat diet, FIG. 26): Attenuation
- weight gain ([7]; high fat diet (42% of calories from fat) supplemented with compound, versus control diet mice, FIG. 11): not distinguishable from the control mice
- average caloric intake of untreated high fat diet mice relative to control and treated groups ([7]; high fat diet, FIG. 12): only slightly higher
